Reference: the Kinase Knowledgebase extract (Sharma et al. 2016)

Legend:
CDK2 = CDK2 (UniProt P24941); test: Enzyme Assay; conditions: for inhibition: concentration not given here
CDK2 (human) = CDK2 (human) (UniProt P24941); test: Cell-Based Assay; conditions: sw480

| IC50 (CDK2) | SMILES | inhibition (CDK2) | further results |
| --- | --- | --- | --- |
| < 3.5 µM | O=C1Nc2ccc3[nH]c(-c4ccccc4)nc3c2/C1=C/c1ccc[nH]1 |  |  |
| < 3.5 µM | COc1cc[nH]c1/C=C1\C(=O)Nc2ccc3[nH]c(C(O)c4ccccc4)nc3c21 (configuration not stated) |  |  |
| < 3.5 µM | COc1cc[nH]c1/C=C1\C(=O)Nc2ccc3[nH]c(NC(C)c4ccccc4)nc3c21 (configuration not stated) |  |  |
| < 3.5 µM | Cc1nc[nH]c1/C=C1\C(=O)Nc2ccc([N+](=O)[O-])c(N)c21 |  |  |
| < 3.5 µM | COc1cc[nH]c1/C=C1\C(=O)Nc2ccc3[nH]c(-c4ccccc4O)nc3c21 |  |  |
| < 3.5 µM | COc1cc[nH]c1/C=C1\C(=O)Nc2ccc3[nH]c(C)nc3c21 |  | IC50 (CDK2 (human)): < 1 µM |
| < 3.5 µM | Cc1nc[nH]c1/C=C1\C(=O)Nc2ccc(N)c(N)c21 |  |  |
| < 3.5 µM | COc1ccc(Cc2nc3c4c(ccc3[nH]2)NC(=O)/C4=C\c2[nH]ccc2OC)cc1 |  |  |
| < 3.5 µM | COc1cc[nH]c1/C=C1\C(=O)Nc2ccc3[nH]c(NCC4CCCO4)nc3c21 (configuration not stated) |  |  |
| < 3.5 µM | COc1cc[nH]c1/C=C1\C(=O)Nc2ccc3[nH]c(Nc4ccc(N(C)C)cc4)nc3c21 |  |  |
| < 3.5 µM | COc1cc[nH]c1/C=C1\C(=O)Nc2ccc3[nH]c(CCCc4ccccc4)nc3c21 |  |  |
| < 3.5 µM | COc1cc[nH]c1/C=C1\C(=O)Nc2ccc3[nH]c(CCc4ccc(O)cc4)nc3c21 |  |  |
| < 3.5 µM | Cc1nc[nH]c1/C=C1\C(=O)Nc2ccc([N+](=O)[O-])c(F)c21 |  |  |

More lines, now with the values behind:

| SMILES | IC50 (CDK2) | inhibition (CDK2) | further results |
| --- | --- | --- | --- |
| COc1cc[nH]c1/C=C1\C(=O)Nc2ccc3[nH]c(-c4ccccc4)nc3c21 | < 3.5 µM |  |  |
| Cc1nc[nH]c1/C=C1\C(=O)Nc2ccc([N+](=O)[O-])c(N=[N+]=[N-])c21 | < 3.5 µM |  |  |
| CCOC(=O)c1ccc(Nc2nc3c4c(ccc3[nH]2)NC(=O)/C4=C\c2[nH]ccc2OC)cc1 |  | < 50% |  |
| COCCCNc1nc2c3c(ccc2[nH]1)NC(=O)/C3=C\c1[nH]ccc1OC | < 3.5 µM |  |  |
| COc1cc[nH]c1/C=C1\C(=O)Nc2ccc3nc(NCc4ccc5c(c4)OCO5)[nH]c3c21 |  | < 50% |  |
| COc1cc[nH]c1/C=C1\C(=O)Nc2ccc3[nH]c(-c4ccc(C(=O)O)cc4)nc3c21 | < 3.5 µM |  |  |
| COc1cc[nH]c1/C=C1\C(=O)Nc2ccc3[nH]c(Nc4cccc(C(C)=O)c4)nc3c21 |  | < 50% |  |
| COc1ccc(CCNc2nc3c4c(ccc3[nH]2)NC(=O)/C4=C\c2[nH]ccc2OC)cc1OC |  | < 50% |  |
| COc1ccccc1Nc1nc2c3c(ccc2[nH]1)NC(=O)/C3=C\c1[nH]ccc1OC |  | < 50% |  |
| COc1cc[nH]c1/C=C1\C(=O)Nc2ccc3nc[nH]c3c21 | < 3.5 µM |  |  |
| COc1cc[nH]c1/C=C1\C(=O)Nc2ccc3nc(Nc4ccc5c(c4)CCC5)[nH]c3c21 |  | < 50% |  |
| COc1cc[nH]c1/C=C1\C(=O)Nc2ccc3nc(NCc4cccc5ccccc45)[nH]c3c21 |  | < 50% |  |
| COC(=O)c1ccc(Nc2nc3c4c(ccc3[nH]2)NC(=O)/C4=C\c2[nH]ccc2OC)cc1 |  | < 50% |  |
| COc1ccc(Nc2nc3c4c(ccc3[nH]2)NC(=O)/C4=C\c2[nH]ccc2OC)cc1 |  | < 50% |  |
| Cc1nc[nH]c1/C=C1\C(=O)Nc2ccc3[nH]cnc3c21 | < 3.5 µM |  |  |
| COc1ccc(Nc2nc3c4c(ccc3[nH]2)NC(=O)/C4=C\c2[nH]ccc2OC)cc1OC |  | < 50% |  |
| COc1cc[nH]c1/C=C1\C(=O)Nc2ccc3nc(NCCCc4ccccc4)[nH]c3c21 |  | < 50% |  |
| COc1cc[nH]c1/C=C1\C(=O)Nc2ccc3[nH]c(NCCCCc4ccccc4)nc3c21 |  | < 50% |  |
